Measured values: patent US20250361217A1, “FATTY ACID COMPOUNDS” (University of Pittsburgh - Of the Commonwealth System of …, priority 2022, published 2025)

Experiments:
[1] = parameters: species or system mice; conditions: mouse, in vivo
Method: Male C57BL/6J (12 weeks old) mice were used to measure the absorption and metabolism of FuFA. In this procedure, I1D3 (50 mg/kg), I 1U3 (50 mg/kg), I1U3-2M (50 mg/kg) and D31-palmitic acid (10 mg/kg) were administered simultaneously (cassette dosing) to single animal. Consequently, the relative pharmacokinetics of multiple compounds can be assessed rapidly with a small number of experimental animals. The compounds were injected either intraperitoneally (n=5) or by gavage (n=5). At 1, 2 and 4h after injection, a small incision on the tail vein was performed and microhematocrit capillary tubes (FisherBrand, #22-362566) were used to collect serial blood samples ([…] per collection). At 6h, mice were anesthetized, and blood was collected from the vena cava in a terminal blood draw. Blood samples were processed as described above to collect plasma. The pharmacokinetics (PK) of free FuFAs and D31-palmitic acid and their esters found in complex lipids were evaluated using 10 μl of plasma. Briefly, 20 μl of water were added to the […] of plasma and divided into 2 glass tubes. The sample in one tube was measured as is using GC-MS upon derivatization and the other sample was hydrolyzed before derivatization and quantification. […] For the total FA quantification, basic hydrolysis was performed using 500 μl of 1M KOH in MeOH and incubated for 1 h at 60° C. […]

liver of HFD mice = assay: Untargeted/targeted metabolomic mass spectrometry of liver (sphingolipids, acylcarnitine); assay type: in vivo
Method: Liver powder (50 mg) was resuspended in 500 μL of H2O and extracted using ethyl acetate (1 mL). Phases were separated by centrifugation for 5 min at 1500 g at 4° C. and the organic phase was collected and dried under nitrogen gas. For acetonitrile precipitation, 200 μL of ice-cold ACN was added to liver tissue homogenized in water and vortexed thoroughly. Samples were centrifuged for 5 min at 1500 g at 4° C. and all the phases were removed and dried under nitrogen gas. Dried samples were reconstituted with McOH and transferred to clean mass spectrometry vials for analysis.
Mass spectrometry data was collected using a Q Exactive Orbitrap (ThermoFisher Scientific) to obtain high-resolution accurate mass data in positive and negative ion modes. Two different Chromatography system were used: The organic phase from Bligh and Dyer extraction sample was performed using a 100×2 mm Luna® 5 μm C18(2) column (phenomenex,00D-4252-BO) with a 0-100% gradient of solvent B (90:10 isopropyl alcohol, ACS reagent for HPLC (Honeywell #AH323):ACN, 0.1% formic acid, reagent grade (Sigma #F0507) and solvent A (70:30 Water, Optima™ LC/MS Grade (Fisher #W6500):acetonitrile, 0.1% formic acid) over 20 min, followed by 100% solvent B for 6 min before a return to 0% solvent B for 4 min at a flow rate of 0.650 mL/min. Chromatography for aqueous Bligh and Dyer phase and acetonitrile precipitation extract was performed using the same column with a gradient of 10-100% solvent D (ACN, 0.1% formic acid) and solvent C (water, 0.1% formic acid) over 18 min, followed by 100% solvent D for 6 min before returning to 10% solvent D for 6 min at a flow rate of 0.650 mL/minute. […]
Ceramide and carnitine conjugates were extracted in the presence of ceramide standard (18:1/17:0) (N-heptadecanoyl-D-erythro-sphingosine, Avanti Polar Lipids #860517) using ethyl acetate and quantified using mass spectrometry.
Mass spectrometry data was collected using an API 5000 LC/MS/MS in positive ion mode. […] Quantitation of analyte and internal standard peak areas was determined using the Quantitation Wizard in Sciex's Analyst® Software.

liver mitochondria = assay: Citrate synthase activity and Oroboros analysis of liver mitochondria flux; assay type: in vivo, mice; conditions: for increase in citrate synthase activity (CSA) vs veh: 50 mg/kg, 11 weeks
From the text: A second cohort of mice was set up to confirm the effect of 11U3-2M on mitochondria and fatty acid (FA) β-oxidation using Oroboros analysis in the HFD but also in LFD models. Male C57BL/6J diet-induced obesity (C57BL/6J DIO, #380050) and male C57BL/6J diet-induced obesity control mice (C57BL/6J DIO Control, #380056) were purchased from Jackson Laboratory (Bar Harbor, ME, USA) at 15 weeks of age. Mice were continuously feeding either HFD or LFD during transport and upon reception. Mice were fed for 4 more weeks before starting the treatment. While continuing the HFD (n=8 per group) or LFD (n=8 per group), mice were treated with the same formulation as the first cohort using only 11U3-2M (50 mg/kg) or veh for 11 weeks. Mice were fasted for 5 h and received a single intraperitoneal injection of 50 μl of D31-palmitic acid (Cambridge Isotope, 3 μM, #dlm-215-1) in PEG400/Saline (2:1) and 1.5% of octanoic acid solution 2h before sacrifice in order to study FA metabolism. Blood and tissues were harvested and stored as described above.

[2] = Energy expenditure and respiratory exchange ratio (FIG. 6D); assay type: in vivo; conditions: mice after treatment

absorption pathway [1]: absorbed through the hepatic portal vein | oral stability (half-lives) compared with natural FuFAs ([1]; po, 50 mg/kg): longer half-lives
Structure (SMILES): CCCc1ccc(CCCCCCCCCC(C)(C)C(=O)O)o1 [11U3-2M, 2,2-Dimethyl-11-(5-propylfuran-2-yl)undecanoic acid]
liver metabolites changed by HFD (untargeted metabolomics) (liver of HFD mice; 50 mg/kg): returned the liver to its basal condition | liver sphingomyelins SM(18:1/16:0), SM(18:1/20:0), SM(18:1/24:0) vs HFD+veh (liver of HFD mice; effect relative to that on ceramides): analogous | liver ceramides (e.g. Cer(18:1/16:0), Cer(18:1/20:0), total ceramide) vs HFD+veh (liver of HFD mice; targeted quantification): significant reduction | increase of flux after addition of glutamate, ratio to CSA, vs veh (liver mitochondria; HFD mice): 34% | increase of flux normalized to CSA vs veh (liver mitochondria; HFD mice): 38.3% | increase in citrate synthase activity (CSA) vs veh (liver mitochondria; HFD mice): 29% | flux after addition of succinate (maximum respiration), normalized by CSA (liver mitochondria; LFD and HFD mice): didn't show any significant difference | increase of flux after addition of glutamate, ratio to CSA, vs veh (liver mitochondria; LFD mice): 23% | increase of flux normalized to CSA vs veh (liver mitochondria; LFD mice): 32.5% | increase in citrate synthase activity (CSA) vs veh (liver mitochondria; LFD mice): 27% | flux with pyruvate as the substrate (liver mitochondria; normalized to CSA): No significant change | mitochondria flux (Oroboros), not normalized (liver mitochondria; substrates palmitoylcarnitine and pyruvate): significantly higher flux | energy expenditure [2]: no change | respiratory exchange ratio [2]: no change
